In ChEMBL document CHEMBL5029157, “Identification of unprecedented ATP-competitive choline kinase inhibitors” (Bioorg Med Chem Lett, 2021):
pIC50: −log10 of the molar value. Values after ≈ are worked out from the molar mass of the structure shown.

Legend:
[1] = Solubility of compound at pH 7; type: physicochemical; conditions: buffer
[2] = Metabolic stability in human liver microsomes assessed as intrinsic clearance; type: ADME, Microsome; conditions: read-out: CLH
[3] = Metabolic stability in rat hepatocyte assessed as intrinsic clearance; type: ADME, tissue-based; conditions: hepatocytes, read-out: CLH
[4] = biological target: Choline/ethanolamine kinase (Homo sapiens, UniProt Q9Y259)
Chain of Choline/ethanolamine kinase (Q9Y259 whole entry): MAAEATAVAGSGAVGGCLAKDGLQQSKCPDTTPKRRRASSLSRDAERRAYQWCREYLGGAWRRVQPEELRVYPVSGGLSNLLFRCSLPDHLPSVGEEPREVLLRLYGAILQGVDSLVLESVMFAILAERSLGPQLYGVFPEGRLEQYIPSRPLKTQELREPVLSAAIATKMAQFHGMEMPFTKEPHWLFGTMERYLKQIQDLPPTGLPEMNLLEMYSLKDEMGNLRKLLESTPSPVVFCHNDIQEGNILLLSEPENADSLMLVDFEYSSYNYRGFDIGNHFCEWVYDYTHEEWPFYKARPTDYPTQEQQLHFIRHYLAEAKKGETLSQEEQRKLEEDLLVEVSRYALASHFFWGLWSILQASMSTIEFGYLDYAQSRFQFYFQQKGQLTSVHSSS

Row | SMILES | solubility [1] | CLint scaled [2] | CLint scaled [3] | pIC50 [4]
1 | NC(=O)Cc1csc(NC(=O)[C@H]2CC[C@@H](n3cnc4c(N)nc(Cl)nc43)CC2)n1 | 6 µM (≈ 2.61 µg/mL) | – | – | –
2 | COc1cccc(NC(=O)[C@H]2CC[C@@H](n3cnc4c(N)nc(-c5ccc6[nH]ncc6c5)nc43)CC2)c1 | – | – | – | < 5.00
3 | Nc1ncnc2c1ncn2[C@H]1CC[C@@H](C(=O)Nc2ccc(S(=O)(=O)C(F)(F)F)cc2)CC1 | – | – | – | < 5.00
4 | NC(=O)Cc1ccc2nc(NC(=O)[C@H]3CC[C@@H](n4cnc5c(N)nc(Cl)nc54)CC3)sc2c1 | 2 µM (≈ 0.97 µg/mL) | – | – | –
5 | COc1cccc(NC(=O)[C@H]2CC[C@@H](n3cnc4c(N)nc(N5CCN(C)CC5)nc43)CC2)c1 | – | – | – | < 5.00
6 | Nc1nc(Cl)nc2c1ncn2[C@H]1CC[C@@H](C(=O)Nc2nc(-c3ccccc3)cs2)CC1 | 5 µM (≈ 2.27 µg/mL) | – | – | –
7 | Cc1csc(NC(=O)[C@H]2CC[C@@H](n3cnc4c(N)nc(F)nc43)CC2)n1 | 2 µM (≈ 0.751 µg/mL) | 12 mL/min/kg | 34 mL/min/kg | –
8 | COc1cccc(NC(=O)[C@H]2CC[C@@H](n3cnc4c(N)nc(-c5ccc6cn[nH]c6c5)nc43)CC2)c1 | – | – | – | < 5.00
9 | NC(=O)c1ccc2nc(NC(=O)[C@H]3CC[C@@H](n4cnc5c(N)nc(Cl)nc54)CC3)sc2c1 | 3 µM (≈ 1.41 µg/mL) | – | – | –
10 | CC1(C)Cc2nc(NC(=O)[C@H]3CC[C@@H](n4cnc5c(N)nc(F)nc54)CC3)sc2C(C)(C)N1 | 200 µM (≈ 94.5 µg/mL) | 56 mL/min/kg | 84 mL/min/kg | –
11 | Nc1nc(Cl)nc2c1ncn2[C@H]1CC[C@@H](C(=O)Nc2nc(C(F)(F)F)cs2)CC1 | 9 µM (≈ 4.01 µg/mL) | – | – | –
12 | Nc1ncnc2c1ncn2[C@H]1CC[C@@H](C(=O)Nc2cccc(S(=O)(=O)C(F)(F)F)c2)CC1 | – | – | – | < 5.00
13 | Nc1nc(Cl)nc2c1ncn2[C@H]1CC[C@@H](C(=O)Nc2nc3c(F)cc(F)cc3s2)CC1 | 1 µM (≈ 0.464 µg/mL) | – | – | –
14 | CS(=O)(=O)c1ccc(NC(=O)[C@H]2CC[C@@H](n3cnc4c(N)ncnc43)CC2)cc1 | – | – | – | < 5.00
15 | NC(=O)Cc1cnc(NC(=O)[C@H]2CC[C@@H](n3cnc4c(N)nc(Cl)nc43)CC2)s1 | 97 µM (≈ 42.2 µg/mL) | – | – | –

Continued, values first:

Row | solubility [1] | CLint scaled [2] | CLint scaled [3] | pIC50 [4] | SMILES
16 | 5 µM (≈ 1.96 µg/mL) | – | – | – | Cc1cnc(NC(=O)[C@H]2CC[C@@H](n3cnc4c(N)nc(Cl)nc43)CC2)s1
17 | 73 µM (≈ 34.7 µg/mL) | – | – | – | CC(C)N1CCc2nc(NC(=O)[C@H]3CC[C@@H](n4cnc5c(N)nc(Cl)nc54)CC3)sc2C1
18 | 3 µM (≈ 1.34 µg/mL) | – | – | – | Nc1nc(Cl)nc2c1ncn2[C@H]1CC[C@@H](C(=O)Nc2nc3ccc(F)cc3s2)CC1
19 | 171 µM (≈ 76.4 µg/mL) | 33 mL/min/kg | 49 mL/min/kg | – | CN1CCc2nc(NC(=O)[C@H]3CC[C@@H](n4cnc5c(N)nc(Cl)nc54)CC3)sc2C1
20 | 3 µM (≈ 1.33 µg/mL) | – | – | – | Nc1nc(Cl)nc2c1ncn2[C@H]1CC[C@@H](C(=O)Nc2nc3ccc(O)cc3s2)CC1
21 | 13 µM | – | – | – | Cl.Nc1nc(Cl)nc2c1ncn2[C@H]1CC[C@@H](C(=O)Nc2nc3c(s2)CN(C2CC2)CC3)CC1
22 | 4 µM (≈ 1.78 µg/mL) | – | – | – | Nc1nc(Cl)nc2c1ncn2[C@H]1CC[C@@H](C(=O)Nc2nc3c(O)cccc3s2)CC1
23 | 4 µM (≈ 1.74 µg/mL) | – | – | – | Nc1nc(Cl)nc2c1ncn2[C@H]1CC[C@@H](C(=O)Nc2nc3c(s2)COCC3)CC1
24 | 15 µM (≈ 5.88 µg/mL) | 12 mL/min/kg | 34 mL/min/kg | – | Cc1csc(NC(=O)[C@H]2CC[C@@H](n3cnc4c(N)nc(Cl)nc43)CC2)n1
25 | 37 µM (≈ 17.8 µg/mL) | – | – | – | Nc1nc(Cl)nc2c1ncn2[C@H]1CC[C@@H](C(=O)Nc2nc3c(s2)CS(=O)(=O)CC3)CC1
26 | 105 µM (≈ 45.2 µg/mL) | 13 mL/min/kg | 22 mL/min/kg | – | CN1CCc2nc(NC(=O)[C@H]3CC[C@@H](n4cnc5c(N)nc(F)nc54)CC3)sc2C1
27 | 1 µM (≈ 0.458 µg/mL) | – | – | – | COc1ccc2nc(NC(=O)[C@H]3CC[C@@H](n4cnc5c(N)nc(Cl)nc54)CC3)sc2c1
28 | 2 µM (≈ 0.916 µg/mL) | – | – | – | COc1cccc2sc(NC(=O)[C@H]3CC[C@@H](n4cnc5c(N)nc(Cl)nc54)CC3)nc12
29 | 153 µM (≈ 66.2 µg/mL) | – | – | – | Nc1nc(Cl)nc2c1ncn2[C@H]1CC[C@@H](C(=O)Nc2nc3c(s2)CNCC3)CC1
30 | 119 µM (≈ 58.2 µg/mL) | 78 mL/min/kg | 97 mL/min/kg | – | CC1(C)Cc2nc(NC(=O)[C@H]3CC[C@@H](n4cnc5c(N)nc(Cl)nc54)CC3)sc2C(C)(C)N1
